Legend:
[1] = system: c-Fos protein expression in the paraventricular nucleus (PVN); assay: HPA axis activation: c-Fos labeling in the PVN; assay type: in vivo, mouse
[2] = system: circulating corticosterone (CORT); assay: HPA axis activation: circulating CORT measurements; settings: cotreatment 1 mg kg^−1 i.p. with LEI-401 30 mg kg^−1 i.p.; P = 0.0027

Cc1c(C(=O)NN2CCCCC2)nn(-c2ccc(Cl)cc2Cl)c1-c1ccc(I)cc1 [AM251]
c-Fos protein expression in PVN ([1]; C57BL/6J mice, 3 mg kg^−1 i.p. single dose, 105 min before perfusion, P = 0.011): elevated c-Fos protein expression

NC(=O)c1cccc(-c2cccc(OC(=O)NC3CCCCC3)c2)c1 [URB597]
effect on LEI-401-induced c-Fos protein expression in PVN ([1]; cotreatment 1 mg kg^−1 i.p. with LEI-401 30 mg kg^−1 i.p., P=0.016): reversed by cotreatment
plasma CORT levels in LEI-401-treated mice on cotreatment [2]: not when cotreated with a FAAH inhibitor

Reference: PMC7468568 (Nature chemical biology, 2020)
